Reference: the supplement of paper PMC8671470

System: KCL-22
Assay: cell viability (% survival relative to DMSO control, bortezomib = 0%); higher = less cytotoxic
Conditions: 100 nM; 72 h
Summary of the method: (§1)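 Reported values are percent survival from duplicate wells, averaged. Fifteen myeloid leukaemia cell lines were treated in 384-well plates with compounds at 1, 10, 100, 1000 or 10000 nM for 72 h at 37 °C in 5% CO2. Signals from CellTiter-Glo luminescence were scaled with vehicle as 100% and a 10 µM positive control as 0%.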

| SMILES | cell viability [%] |
| --- | --- |
| COc1cc(C2Oc3cc(C4Oc5cc(O)cc(O)c5C(=O)C4O)ccc3OC2CO)ccc1O (stereo not given) [Silibinin] | 84.2 |
| Fc1ccc(CNc2ncnc3ccc(F)cc23)cc1 [Spautin 1] | 108 |
| Cn1c2cc(S(C)=O)sc2c2cnn(Cc3cccc(N)c3)c(=O)c21 (stereo not given) [TEPP-46] | 97.2 |
| CCCCCCCCCCCCCCOc1ccc(C(=O)O)o1 [TOFA] | 108 |
| CN1CC(=O)N2[C@H](c3ccc4c(c3)OCO4)c3[nH]c4ccccc4c3C[C@@H]2C1=O [Tadalafil] | 92 |

Same assay, conditions: 1000 nM; 72 h

| SMILES | cell viability [%] |
| --- | --- |
| CC(C)(F)C[C@H](N[C@@H](c1ccc(-c2ccc(S(C)(=O)=O)cc2)cc1)C(F)(F)F)C(=O)NC1(C#N)CC1 [Odanacatib] | 93.7 |
| Nc1nc(O)c2c(CCc3ccc(C(=O)N[C@@H](CCC(=O)O)C(=O)O)cc3)c[nH]c2n1 [Pemetrexed] | 36.9 |
| C=C1NC(=O)c2cc(CN(C)c3ccc(C(=O)N[C@@H](CCC(=O)O)C(=O)O)s3)ccc2N1 [Raltitrexed] | 21.2 |
| CNC(=C[N+](=O)[O-])NCCSCc1ccc(CN(C)C)o1 [Ranitidine] | 109 |
| C#CCN[C@@H]1CCc2ccccc21 [Rasagiline] | 89.7 |
| NC(CCC(=O)NC(CSCc1ccc(Br)cc1)C(=O)NCC(=O)OC1CCCC1)C(=O)OC1CCCC1 (stereo not given) [S-para-Bromobenzylglutathione cyclopentyl diester] | 111 |
| COc1cc(C2Oc3cc(C4Oc5cc(O)cc(O)c5C(=O)C4O)ccc3OC2CO)ccc1O (stereo not given) [Silibinin] | 102 |
| Fc1ccc(CNc2ncnc3ccc(F)cc23)cc1 [Spautin 1] | 88.6 |
| Cn1c2cc(S(C)=O)sc2c2cnn(Cc3cccc(N)c3)c(=O)c21 (stereo not given) [TEPP-46] | 111 |
| CCCCCCCCCCCCCCOc1ccc(C(=O)O)o1 [TOFA] | 107 |
| CN1CC(=O)N2[C@H](c3ccc4c(c3)OCO4)c3[nH]c4ccccc4c3C[C@@H]2C1=O [Tadalafil] | 101 |

Same assay, conditions: 10000 nM; 72 h

| SMILES | cell viability [%] |
| --- | --- |
| CC(C)(F)C[C@H](N[C@@H](c1ccc(-c2ccc(S(C)(=O)=O)cc2)cc1)C(F)(F)F)C(=O)NC1(C#N)CC1 [Odanacatib] | 122 |
| Nc1nc(O)c2c(CCc3ccc(C(=O)N[C@@H](CCC(=O)O)C(=O)O)cc3)c[nH]c2n1 [Pemetrexed] | 24.3 |
| C=C1NC(=O)c2cc(CN(C)c3ccc(C(=O)N[C@@H](CCC(=O)O)C(=O)O)s3)ccc2N1 [Raltitrexed] | 22 |
| CNC(=C[N+](=O)[O-])NCCSCc1ccc(CN(C)C)o1 [Ranitidine] | 92.9 |
| C#CCN[C@@H]1CCc2ccccc21 [Rasagiline] | 135 |
| NC(CCC(=O)NC(CSCc1ccc(Br)cc1)C(=O)NCC(=O)OC1CCCC1)C(=O)OC1CCCC1 (stereo not given) [S-para-Bromobenzylglutathione cyclopentyl diester] | 98.3 |
| COc1cc(C2Oc3cc(C4Oc5cc(O)cc(O)c5C(=O)C4O)ccc3OC2CO)ccc1O (stereo not given) [Silibinin] | 95.1 |
| Fc1ccc(CNc2ncnc3ccc(F)cc23)cc1 [Spautin 1] | 61.9 |
| Cn1c2cc(S(C)=O)sc2c2cnn(Cc3cccc(N)c3)c(=O)c21 (stereo not given) [TEPP-46] | 87.8 |
| CCCCCCCCCCCCCCOc1ccc(C(=O)O)o1 [TOFA] | 40.4 |
| CN1CC(=O)N2[C@H](c3ccc4c(c3)OCO4)c3[nH]c4ccccc4c3C[C@@H]2C1=O [Tadalafil] | 81.7 |

System: NOMO-1
Assay: as above
Conditions: 1 nM; 72 h
Summary of the method: as §1

| SMILES | cell viability [%] |
| --- | --- |
| CC(C)(F)C[C@H](N[C@@H](c1ccc(-c2ccc(S(C)(=O)=O)cc2)cc1)C(F)(F)F)C(=O)NC1(C#N)CC1 [Odanacatib] | 99.6 |
| Nc1nc(O)c2c(CCc3ccc(C(=O)N[C@@H](CCC(=O)O)C(=O)O)cc3)c[nH]c2n1 [Pemetrexed] | 91 |
| C=C1NC(=O)c2cc(CN(C)c3ccc(C(=O)N[C@@H](CCC(=O)O)C(=O)O)s3)ccc2N1 [Raltitrexed] | 99.5 |
| CNC(=C[N+](=O)[O-])NCCSCc1ccc(CN(C)C)o1 [Ranitidine] | 96.3 |
| C#CCN[C@@H]1CCc2ccccc21 [Rasagiline] | 95.2 |
| NC(CCC(=O)NC(CSCc1ccc(Br)cc1)C(=O)NCC(=O)OC1CCCC1)C(=O)OC1CCCC1 (stereo not given) [S-para-Bromobenzylglutathione cyclopentyl diester] | 98 |
| COc1cc(C2Oc3cc(C4Oc5cc(O)cc(O)c5C(=O)C4O)ccc3OC2CO)ccc1O (stereo not given) [Silibinin] | 95.3 |
| Fc1ccc(CNc2ncnc3ccc(F)cc23)cc1 [Spautin 1] | 103 |
| Cn1c2cc(S(C)=O)sc2c2cnn(Cc3cccc(N)c3)c(=O)c21 (stereo not given) [TEPP-46] | 104 |
| CCCCCCCCCCCCCCOc1ccc(C(=O)O)o1 [TOFA] | 105 |
| CN1CC(=O)N2[C@H](c3ccc4c(c3)OCO4)c3[nH]c4ccccc4c3C[C@@H]2C1=O [Tadalafil] | 97.8 |

Same assay, conditions: 10 nM; 72 h

| SMILES | cell viability [%] |
| --- | --- |
| CC(C)(F)C[C@H](N[C@@H](c1ccc(-c2ccc(S(C)(=O)=O)cc2)cc1)C(F)(F)F)C(=O)NC1(C#N)CC1 [Odanacatib] | 100 |
| Nc1nc(O)c2c(CCc3ccc(C(=O)N[C@@H](CCC(=O)O)C(=O)O)cc3)c[nH]c2n1 [Pemetrexed] | 94.8 |
| C=C1NC(=O)c2cc(CN(C)c3ccc(C(=O)N[C@@H](CCC(=O)O)C(=O)O)s3)ccc2N1 [Raltitrexed] | 113 |
| CNC(=C[N+](=O)[O-])NCCSCc1ccc(CN(C)C)o1 [Ranitidine] | 96.2 |
| C#CCN[C@@H]1CCc2ccccc21 [Rasagiline] | 103 |
| NC(CCC(=O)NC(CSCc1ccc(Br)cc1)C(=O)NCC(=O)OC1CCCC1)C(=O)OC1CCCC1 (stereo not given) [S-para-Bromobenzylglutathione cyclopentyl diester] | 98.1 |
| COc1cc(C2Oc3cc(C4Oc5cc(O)cc(O)c5C(=O)C4O)ccc3OC2CO)ccc1O (stereo not given) [Silibinin] | 96.4 |
| Fc1ccc(CNc2ncnc3ccc(F)cc23)cc1 [Spautin 1] | 102 |
| Cn1c2cc(S(C)=O)sc2c2cnn(Cc3cccc(N)c3)c(=O)c21 (stereo not given) [TEPP-46] | 92.6 |
| CCCCCCCCCCCCCCOc1ccc(C(=O)O)o1 [TOFA] | 101 |
| CN1CC(=O)N2[C@H](c3ccc4c(c3)OCO4)c3[nH]c4ccccc4c3C[C@@H]2C1=O [Tadalafil] | 95.1 |

Same assay, conditions: 100 nM; 72 h

| SMILES | cell viability [%] |
| --- | --- |
| CC(C)(F)C[C@H](N[C@@H](c1ccc(-c2ccc(S(C)(=O)=O)cc2)cc1)C(F)(F)F)C(=O)NC1(C#N)CC1 [Odanacatib] | 108 |
| Nc1nc(O)c2c(CCc3ccc(C(=O)N[C@@H](CCC(=O)O)C(=O)O)cc3)c[nH]c2n1 [Pemetrexed] | 82.8 |
| C=C1NC(=O)c2cc(CN(C)c3ccc(C(=O)N[C@@H](CCC(=O)O)C(=O)O)s3)ccc2N1 [Raltitrexed] | 51.3 |
| CNC(=C[N+](=O)[O-])NCCSCc1ccc(CN(C)C)o1 [Ranitidine] | 108 |
| C#CCN[C@@H]1CCc2ccccc21 [Rasagiline] | 103 |
| NC(CCC(=O)NC(CSCc1ccc(Br)cc1)C(=O)NCC(=O)OC1CCCC1)C(=O)OC1CCCC1 (stereo not given) [S-para-Bromobenzylglutathione cyclopentyl diester] | 97.4 |
| COc1cc(C2Oc3cc(C4Oc5cc(O)cc(O)c5C(=O)C4O)ccc3OC2CO)ccc1O (stereo not given) [Silibinin] | 99.8 |
| Fc1ccc(CNc2ncnc3ccc(F)cc23)cc1 [Spautin 1] | 110 |
| Cn1c2cc(S(C)=O)sc2c2cnn(Cc3cccc(N)c3)c(=O)c21 (stereo not given) [TEPP-46] | 102 |
| CCCCCCCCCCCCCCOc1ccc(C(=O)O)o1 [TOFA] | 99.3 |
| CN1CC(=O)N2[C@H](c3ccc4c(c3)OCO4)c3[nH]c4ccccc4c3C[C@@H]2C1=O [Tadalafil] | 96.6 |

Same assay, conditions: 1000 nM; 72 h

| SMILES | cell viability [%] |
| --- | --- |
| CC(C)(F)C[C@H](N[C@@H](c1ccc(-c2ccc(S(C)(=O)=O)cc2)cc1)C(F)(F)F)C(=O)NC1(C#N)CC1 [Odanacatib] | 102 |
| Nc1nc(O)c2c(CCc3ccc(C(=O)N[C@@H](CCC(=O)O)C(=O)O)cc3)c[nH]c2n1 [Pemetrexed] | 51.9 |
| C=C1NC(=O)c2cc(CN(C)c3ccc(C(=O)N[C@@H](CCC(=O)O)C(=O)O)s3)ccc2N1 [Raltitrexed] | 34.8 |
| CNC(=C[N+](=O)[O-])NCCSCc1ccc(CN(C)C)o1 [Ranitidine] | 98.7 |
| C#CCN[C@@H]1CCc2ccccc21 [Rasagiline] | 93.2 |
